Tests used:
PLA2G16 = target: T1, PLA2G16 (Homo sapiens, UniProt P53816); test: Enzyme activity assay for PLA2G16 (Red/Green BODIPY PC-A2 fluorescence); type: biochemical; settings: His-tagged PLA2G16, 4 min pre-incubation, compound 2 nM to 50 μM; first symbol in parentheses
T1 construct: Hexa-His (N); made in house; host or cells: E. coli BL21(DE3)
T1 sequence (P53816 1-162): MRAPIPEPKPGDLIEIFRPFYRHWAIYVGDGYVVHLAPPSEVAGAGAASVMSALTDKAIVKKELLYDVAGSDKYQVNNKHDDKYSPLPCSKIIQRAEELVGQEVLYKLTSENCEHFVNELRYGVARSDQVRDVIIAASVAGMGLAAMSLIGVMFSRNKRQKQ
Text: Purification and Enzyme Activity Assay for PLA2G16
A cDNA for PLA2G16 (NM_007069) was custom-synthesized by Genscript (Piscataway, USA) and inserted into a pET-based bacterial expression vector [Moffatt, B. A. and Studier, F. W. (1986) J. Mol. Biol. 189, 113-130; Rosenberg, A. H., Lade, B. N., Chui, D., Lin, S., Dunn, J. J., and Studier, F. W. (1987) Gene 56, 125-135], enabling the expression of N-terminally Hexa-His-tagged PLA2G16. E. coli BL21(DE3) (Agilent) were transformed with pET-His-PLA2G16 according to the manufacturer's instructions and plated on Carbenicillin-containing agar plates (final concentration: 100 μg/mL). A single clone was inoculated in 100 mL LB medium supplemented with 100 μg/mL Carbenicillin and the inoculated culture was grown at 37° C. overnight in a rotary shaker. On the next day, the bacterial culture was diluted in LB medium supplemented with 100 μg/mL Carbenicillin (30 mL overnight culture in 800 mL total culture volume). Bacteria were grown at 37° C. until the OD600 reached 0.6. Gene expression was induced by addition of 1 mM isopropyl-β-D-thiogalactopyranosid (IPTG) for 2 h at 18° C. Subsequently, bacteria were harvested by centrifugation (15 min; 10,000×g; 4° C.) and frozen at −80° C. The bacterial pellet was resuspended in Buffer A (50 mM Tris/HCl pH 7.5, 500 mM NaCl, 5% glycerol, 5 mM β-Mercaptoethanol and 1 mM PMSF) and lysed by addition of 1 mg/mL lysozyme (Sigma Aldrich) and 100 μg/mL DNasel-(Roche). The sample was incubated at 30° C. for 30 min to allow lysis to occur. Then, the lysate was cleared by centrifugation (15,000×g, 15 min, 4° C.) and incubated with 1.5 mL Ni-NTA agarose suspension (Qiagen) for 60 min at 4° C. The Ni-NTA agarose was washed with 10 mL Buffer A. Bound protein was eluted by applying a manual gradient of Buffer A supplemented with increasing concentrations of imidazole (Sigma Aldrich; 25/50/75/100/250 mM). Purified fractions were analyzed by SDS-PAGE followed by Coomassie staining to assess the purity.
Activity of the protein was assessed as follows:
Red/Green BODIPY® PC-A2 (Invitrogen, 1 mM in DMSO) was mixed with equal volumes of 1,2-Dioleoyl-sn-glycero-3-phosphocholine (DOPC; Sigma Aldrich, 10 mM in Ethanol) and 1,2-Dioleoyl-sn-glycero-3-phospho-rac-(1-glycerol) (DOPG; Sigma Aldrich, 10 mM in Ethanol) and 0.5 volumes of Cholesterol (CHOL; Sigma Aldrich, 10 mM in Ethanol) and vortexed for 5 s. The mixture (Red/Green BODIPY® PC-A2/DOPC/DOPG/CHOL) was diluted 1:91.4 in activity assay buffer (50 mM Tris/HCl pH 8.5, 100 mM NaCl) using a small-orifice pipette tip under constant vortexing. In the following, this preparation will be referred to as the “substrate solution”.
In order to evaluate their inhibitory potential, compounds were dissolved at 10 mM concentration in DMSO and directly spotted into assay plates (Corning, Cat. No. 3576) using acoustic liquid transfer (Labcyte Echo 525). Each compound was spotted at increasing concentrations, ranging from 2 nM to 50 μM (concentration in the final assay volume). 50 μl of PLA2G16 enzyme solution (diluted in activity buffer, supplemented with 5 mM L-Glutathione; Sigma Aldrich) was pre-incubated with compounds for 4 min., followed by addition of 50 μl of substrate solution. Fluorescence was recorded immediately after substrate addition for a total time of 10 min. using a SpectraMax M5 multimode reader (Excitation wavelength: 480 nm, emission wavelength: 530 nm). The relative increase of fluorescence over time is referred to as the enzyme activity. Half-maximal inhibitory concentrations (IC50) were derived by non-linear regression analysis using the drc package in R (R Development. Core Team, 2005).

[1] = tested on: picornaviruses (CVB1, HRV-A2, HRV-A23, EV-68); test: Anti-picornavirus cytopathic effect (CPE) reduction assay on HeLa H1 cells; type: cell-based; settings: 48 h, category from averaging EC50 values of four picornaviruses (CVB1, HRV-A2, HRV-A23, EV68), second symbol in parentheses
Protocol: Anti-Picornavirus Assay in Mammalian Cell Culture
The antiviral activity of selected compounds was tested using a cytopathic effect (CPE) reduction assay on HeLa H1 cells (ATCC CRL-1958). Briefly, cells were seeded in 96-well dishes (2×10^4 cells/well) in DMEM medium (Life technologies) supplemented with 10% FBS and PenStrep solution (100 U/mL Penicillin and 100 μg/mL streptomycin) and incubated at 37° C., 5% CO2 overnight. The next day, cells were pre-treated with serial dilutions of the compound in DMEM medium supplemented with 2% FBS and PenStrep for 2 h at 37° C., 5% CO2. Next, cells were infected with virus (CVB1, HRV-A2, HRV-A23, EV-68) at an multiplicity of infection (MOI) which results in a complete virus-induced CPE within 2 days in control wells (infected and vehicle-treated). After 48 h, supernatants were aspirated and 50 μl/well of CellTiterBlue reagent (Promega) diluted 1:5 in DMEM+2% FBS, was added to the cells. Plates were returned to the incubator and allowed to develop for 1.5 h. After that, plates were equilibrated to RT and subsequently, fluorescence was recorded (Excitation wavelength: 560 nm; emission wavelength: 590 nm) using a SpectraMax M5 multimode plate reader. Viability of cells was calculated according to the formula: V=(RFUCpd−RFUVeh/(RFUM−RFUVeh), where RFUCpd refers to infected and compound-treated cells, RFUVeh to infected and vehicle-treated cells and RFUM to uninfected and vehicle treated cells. Half-maximal effective concentrations (EC50) were calculated by non-linear regression analysis using the drc package in R (R Development. Core Team, 2005). EC50 categories as presented in Table 2 were calculated by averaging the EC50 values from four picornaviruses (CVB1, HRV-A2, HRV-A23, EV68).

| SMILES | IC50 (PLA2G16) | EC50 [1] |
| --- | --- | --- |
| Cc1cc(CN2C[C@H](C(=O)C(=O)NC3CC3)[C@@H](Cc3ccccc3)C2=O)no1 (racemic) [FP-41, Rac-2-[(3R,4R)-4-benzyl-1-[(5-methyl-1,2-oxazol-3-yl)methyl]-5-oxopyrrolidin-3-yl]-N-cyclopropyl-2-oxoacetamide] | < 1 µM | < 1 µM |
| Cn1ncnc1CN1C[C@H](C(=O)C(=O)NC2CC2)[C@@H](Cc2ccccc2)C1=O (racemic) [FP-42, Rac-2-[(3R,4R)-4-benzyl-1-[(1-methyl-1H-1,2,4-triazol-5-yl)methyl]-5-oxopyrrolidin-3-yl]-N-cyclopropyl-2-oxoacetamide] | < 1 µM | 1 to 10 µM |
| CNC(=O)CN1C[C@H](C(=O)C(=O)NCC(C)C)[C@@H](Cc2ccccc2)C1=O (racemic) [FP-43, Rac-2-[(3R,4R)-4-benzyl-1-[(methylcarbamoyl)methyl]-5-oxopyrrolidin-3-yl]-N-(2-methylpropyl)-2-oxoacetamide] | < 1 µM | 1 to 10 µM |
| CC(C)CNC(=O)C(=O)[C@H]1CN(CC(=O)N(C)C)C(=O)[C@@H]1Cc1ccccc1 (racemic) [FP-44, Rac-2-[(3R,4R)-3-benzyl-4-{[(2-methylpropyl)carbamoyl]carbonyl}-2-oxopyrrolidin-1-yl]-N,N-dimethylacetamide] | < 1 µM | < 1 µM |
| Cc1cc(CN2C[C@H](C(=O)C(=O)NC3CC3)[C@@H](Cc3ccccc3)C2=O)on1 (racemic) [FP-46, Rac-2-[(3R,4R)-4-benzyl-1-[(3-methyl-1,2-oxazol-5-yl)methyl]-5-oxopyrrolidin-3-yl]-N-cyclopropyl-2-oxoacetamide] | < 1 µM | 1 to 10 µM |
| CC(C)CNC(=O)C(=O)[C@H]1CN(CCN2CCCC2=O)C(=O)[C@@H]1Cc1ccccc1 (racemic) [FP-47, Rac-2-[(3R,4R)-4-benzyl-5-oxo-1-[2-(2-oxopyrrolidin-1-yl)ethyl]pyrrolidin-3-yl]-N-(2-methylpropyl)-2-oxoacetamide] | < 1 µM | 1 to 10 µM |
| O=C(NC1CC1)C(=O)[C@H]1CN(CCN2CCCC2=O)C(=O)[C@@H]1Cc1ccccc1 (racemic) [FP-48, Rac-2-[(3R,4R)-4-benzyl-5-oxo-1-[2-(2-oxopyrrolidin-1-yl)ethyl]pyrrolidin-3-yl]-N-cyclopropyl-2-oxoacetamide] | < 1 µM | 1 to 10 µM |
| O=C(NC1CC1)C(=O)[C@H]1CN(CC(F)F)C(=O)[C@@H]1Cc1ccccc1 (racemic) [FP-49, Rac-2-[(3R,4R)-4-benzyl-1-(2,2-difluoroethyl)-5-oxopyrrolidin-3-yl]-N-cyclopropyl-2-oxoacetamide] | < 1 µM | < 1 µM |
| CCNC(=O)C(=O)[C@H]1CN(CC(F)F)C(=O)[C@@H]1Cc1ccccc1 (racemic) [FP-50, Rac-2-[(3R,4R)-4-benzyl-1-(2,2-difluoroethyl)-5-oxopyrrolidin-3-yl]-N-ethyl-2-oxoacetamide] | < 1 µM | < 1 µM |
| Cn1cnc(CN2C[C@H](C(=O)C(=O)NC3CC3)[C@@H](Cc3ccc(F)cc3)C2=O)n1 (racemic) [FP-51, Rac-N-cyclopropyl-2-[(3R,4R)-4-[(4-fluorophenyl)methyl]-1-[(1-methyl-1H-1,2,4-triazol-3-yl)methyl]-5-oxopyrrolidin-3-yl]-2-oxoacetamide] | < 1 µM | 1 to 10 µM |
| Cn1ncnc1CN1C[C@H](C(=O)C(=O)NC2CC2)[C@@H](Cc2ccc(F)cc2)C1=O (racemic) [FP-52, Rac-N-cyclopropyl-2-[(3R,4R)-4-[(4-fluorophenyl)methyl]-1-[(1-methyl-1H-1,2,4-triazol-5-yl)methyl]-5-oxopyrrolidin-3-yl]-2-oxoacetamide] | < 1 µM | > 10 µM |
| Cn1ncnc1CN1C[C@H](C(=O)C(=O)NCC(C)(F)F)[C@@H](Cc2ccc(F)cc2)C1=O (racemic) [FP-53, Rac-N-(2,2-difluoropropyl)-2-[(3R,4R)-4-[(4-fluorophenyl)methyl]-1-[(1-methyl-1H-1,2,4-triazol-5-yl)methyl]-5-oxopyrrolidin-3-yl]-2-oxoacetamide] | < 1 µM | 1 to 10 µM |
| O=C(NC1CC1)C(=O)[C@H]1CN(c2cncnc2)C(=O)[C@@H]1Cc1ccccc1 (racemic) [FP-54, Rac-2-[(3R,4R)-4-benzyl-5-oxo-1-(pyrimidin-5-yl)pyrrolidin-3-yl]-N-cyclopropyl-2-oxoacetamide] | < 1 µM | < 1 µM |
| CCNC(=O)C(=O)[C@H]1CN(c2cncnc2)C(=O)[C@@H]1Cc1ccccc1 (racemic) [FP-55, Rac-2-[(3R,4R)-4-benzyl-5-oxo-1-(pyrimidin-5-yl)pyrrolidin-3-yl]-N-ethyl-2-oxo-acetamide] | < 1 µM | < 1 µM |
| CC(F)(F)CNC(=O)C(=O)[C@H]1CN(c2cncnc2)C(=O)[C@@H]1Cc1ccccc1 (racemic) [FP-56, Rac-2-[(3R,4R)-4-benzyl-5-oxo-1-(pyrimidin-5-yl)pyrrolidin-3-yl]-N-(2,2-difluoropropyl)-2-oxoacetamide] | < 1 µM | < 1 µM |
| O=C(NC1CC1)C(=O)[C@H]1CN(c2cnccn2)C(=O)[C@@H]1Cc1ccccc1 (racemic) [FP-57, Rac-2-[(3R,4R)-4-benzyl-5-oxo-1-(pyrazin-2-yl)pyrrolidin-3-yl]-N-cyclopropyl-2-oxoacetamide] | < 1 µM | < 1 µM |
| O=C(NC1CC1)C(=O)[C@H]1CN(c2ncccn2)C(=O)[C@@H]1Cc1ccccc1 (racemic) [FP-58, Rac-2-[(3R,4R)-4-benzyl-5-oxo-1-(pyrimidin-2-yl)pyrrolidin-3-yl]-N-cyclopropyl-2-oxoacetamide] | < 1 µM | 1 to 10 µM |
